Measurements taken from BindingDB's records for PubMed 8558460 (Yamanouchi Pharmaceutical, 1996).
Values joined by “and” are separate entries in the source; they are usually repeats but may differ in a detail not shown here. Equal values may be shown once.

How the values were obtained:
Glutamate receptor 3 = Glutamate receptor 3 (Rattus norvegicus, UniProt P19492)
[1] = target: Glutamate receptor ionotropic, NMDA 1 (Rattus norvegicus, UniProt P35439)
[2] = target: Glutamate receptor ionotropic, kainate 1 (Rattus norvegicus, UniProt P22756)
Sequence of Glutamate receptor ionotropic, kainate 1 (P22756 whole entry): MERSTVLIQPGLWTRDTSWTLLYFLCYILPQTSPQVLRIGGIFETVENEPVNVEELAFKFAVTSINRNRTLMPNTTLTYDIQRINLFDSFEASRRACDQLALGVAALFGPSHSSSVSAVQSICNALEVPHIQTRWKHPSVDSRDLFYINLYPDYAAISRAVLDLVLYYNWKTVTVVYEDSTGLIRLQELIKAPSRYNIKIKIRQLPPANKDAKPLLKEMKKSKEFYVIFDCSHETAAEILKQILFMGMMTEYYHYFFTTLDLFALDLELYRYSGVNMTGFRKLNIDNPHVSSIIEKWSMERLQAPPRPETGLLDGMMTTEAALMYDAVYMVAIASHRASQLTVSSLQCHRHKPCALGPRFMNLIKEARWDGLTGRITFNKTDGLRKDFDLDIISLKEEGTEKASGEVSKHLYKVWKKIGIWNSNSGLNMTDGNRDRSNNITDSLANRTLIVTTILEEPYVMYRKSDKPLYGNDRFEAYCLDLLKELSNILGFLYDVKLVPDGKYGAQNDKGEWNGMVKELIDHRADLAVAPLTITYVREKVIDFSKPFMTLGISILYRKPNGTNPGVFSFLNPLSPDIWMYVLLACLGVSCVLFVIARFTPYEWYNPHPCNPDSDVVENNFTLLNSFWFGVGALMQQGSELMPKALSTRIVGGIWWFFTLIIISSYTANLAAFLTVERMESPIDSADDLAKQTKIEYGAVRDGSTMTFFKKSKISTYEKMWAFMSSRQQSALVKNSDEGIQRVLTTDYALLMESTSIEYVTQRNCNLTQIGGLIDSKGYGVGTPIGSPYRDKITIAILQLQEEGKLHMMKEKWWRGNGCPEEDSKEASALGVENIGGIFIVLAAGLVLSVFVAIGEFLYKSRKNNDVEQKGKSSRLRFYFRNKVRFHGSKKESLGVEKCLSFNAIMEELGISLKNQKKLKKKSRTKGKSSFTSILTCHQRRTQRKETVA

Sequence of Glutamate receptor 3 (P19492 whole entry): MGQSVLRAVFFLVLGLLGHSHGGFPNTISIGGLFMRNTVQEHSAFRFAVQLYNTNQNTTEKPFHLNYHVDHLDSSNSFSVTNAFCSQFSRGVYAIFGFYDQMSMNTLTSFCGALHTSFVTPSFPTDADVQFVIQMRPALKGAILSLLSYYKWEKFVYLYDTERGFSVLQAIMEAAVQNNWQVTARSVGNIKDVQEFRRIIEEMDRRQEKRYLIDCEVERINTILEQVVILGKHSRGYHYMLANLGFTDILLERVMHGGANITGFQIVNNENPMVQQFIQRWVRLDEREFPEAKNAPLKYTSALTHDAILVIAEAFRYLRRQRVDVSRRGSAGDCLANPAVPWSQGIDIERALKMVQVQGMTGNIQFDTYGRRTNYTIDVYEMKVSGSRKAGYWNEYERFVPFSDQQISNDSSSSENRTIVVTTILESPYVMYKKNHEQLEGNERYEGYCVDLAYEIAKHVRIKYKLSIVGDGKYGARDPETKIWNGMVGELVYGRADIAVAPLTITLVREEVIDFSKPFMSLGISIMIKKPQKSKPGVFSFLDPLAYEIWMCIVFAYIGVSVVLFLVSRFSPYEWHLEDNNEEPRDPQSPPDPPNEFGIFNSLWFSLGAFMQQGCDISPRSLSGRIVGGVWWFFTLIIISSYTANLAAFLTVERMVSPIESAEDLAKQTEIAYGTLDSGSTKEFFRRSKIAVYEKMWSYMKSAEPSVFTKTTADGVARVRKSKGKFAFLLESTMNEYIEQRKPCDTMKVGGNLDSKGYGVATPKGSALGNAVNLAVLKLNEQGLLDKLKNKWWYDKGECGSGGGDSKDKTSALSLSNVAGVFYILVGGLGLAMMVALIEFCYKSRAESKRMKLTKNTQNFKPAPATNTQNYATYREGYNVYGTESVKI

| Structure (SMILES) | Ki (Glutamate receptor 3) [nM] | Ki [1] | Ki [2] [nM] |
| --- | --- | --- | --- |
| O=C1N=c2cc(N(O)O)c(-n3ccnc3)cc2=NC1=O [CAS_3035216] | 84 | > 10000 nM | 2200 |
| N#Cc1cc2nc(O)c(O)nc2cc1[N+](=O)[O-] [7-Cyano-3-hydroxy-6-nitro-quinoxalin-2-ol anion] |  | > 10000 nM and 5600 nM | 1800 |
